Measurements: patent US12435059B2, “AMP-activated protein kinase inhibitors and methods of making and using the same” (The Regents of the University of Colorado, priority 2019, dated 2025)
Read-outs that look alike come from different tables or passages of the source.

Key:
Experiment in all cases: biochemical
Type in all cases: binding
468 kinases [1] = biological target: 468 kinases (Homo sapiens, UniProt P36888); settings: read-out: % Inhibition @ 100 nM
468 kinases [2] = biological target: 468 kinases (Homo sapiens, UniProt Q13237); settings: PRKG2; read-out: % Inhibition @ 100 nM
468 kinases [3] = biological target: 468 kinases (Homo sapiens, UniProt Q9UPE1); settings: SRPK3; read-out: % Inhibition @ 100 nM
468 kinases [4] = biological target: 468 kinases (Homo sapiens, UniProt P78356); settings: PIP5K2B; read-out: % Inhibition @ 100 nM
468 kinases [5] = biological target: 468 kinases (Homo sapiens, UniProt Q9H2K8); settings: TAOK3; read-out: % Inhibition @ 100 nM
468 kinases [6] = biological target: 468 kinases (Homo sapiens, UniProt O14976); settings: GAK; read-out: % Inhibition @ 100 nM
468 kinases [7] = biological target: 468 kinases (Homo sapiens, UniProt P0C264); settings: SgK110; read-out: % Inhibition @ 100 nM
468 kinases [8] = biological target: 468 kinases (Homo sapiens, UniProt P52333); settings: JAK3 (JH1domain-catalytic); read-out: % Inhibition @ 100 nM
468 kinases [9] = biological target: 468 kinases (Homo sapiens, UniProt Q8IU85); settings: CAMK1D; read-out: % Inhibition @ 100 nM
468 kinases [10] = biological target: 468 kinases (Homo sapiens, UniProt Q8WU08); settings: YANK1; read-out: % Inhibition @ 100 nM
468 kinases [11] = biological target: 468 kinases (Homo sapiens, UniProt Q13976); settings: PRKG1; read-out: % Inhibition @ 100 nM
468 kinases [12] = biological target: 468 kinases (Homo sapiens, UniProt Q14164); settings: IKK-epsilon; read-out: % Inhibition @ 100 nM
468 kinases [13] = biological target: 468 kinases (Homo sapiens, UniProt Q00526); settings: CDK3; read-out: % Inhibition @ 100 nM
468 kinases [14] = biological target: 468 kinases (Homo sapiens, UniProt P15735); settings: PHKG2; read-out: % Inhibition @ 100 nM
468 kinases [15] = biological target: 468 kinases (Homo sapiens, UniProt P42681); settings: TXK; read-out: % Inhibition @ 100 nM
468 kinases [16] = biological target: 468 kinases (Homo sapiens, UniProt Q9BYP7); settings: WNK3; read-out: % Inhibition @ 100 nM
468 kinases [17] = biological target: 468 kinases (Homo sapiens, UniProt Q02750); settings: MEK1; read-out: % Inhibition @ 100 nM
468 kinases [18] = biological target: 468 kinases (Homo sapiens, UniProt P22455); settings: FGFR4; read-out: % Inhibition @ 100 nM
468 kinases [19] = biological target: 468 kinases (Homo sapiens, UniProt Q8NI60); settings: ADCK3; read-out: % Inhibition @ 100 nM
468 kinases [20] = biological target: 468 kinases (Homo sapiens, UniProt P07949, V804M); settings: RET(V804M); read-out: % Inhibition @ 100 nM
468 kinases [21] = biological target: 468 kinases (Homo sapiens, UniProt Q9C098); settings: DCAMKL3; read-out: % Inhibition @ 100 nM
468 kinases [22] = biological target: 468 kinases (Homo sapiens, UniProt Q6ZWH5); settings: NEK10; read-out: % Inhibition @ 100 nM
468 kinases [23] = biological target: 468 kinases (Homo sapiens, UniProt Q99558); settings: NIK; read-out: % Inhibition @ 100 nM
468 kinases [24] = biological target: 468 kinases (Homo sapiens, UniProt O60674); settings: JAK2( JH1domain-catalytic); read-out: % Inhibition @ 100 nM
468 kinases [25] = biological target: 468 kinases (Homo sapiens, UniProt Q9UL54); settings: TAOK2; read-out: % Inhibition @ 100 nM
468 kinases [26] = biological target: 468 kinases (Homo sapiens, UniProt O76039); settings: CDKL5; read-out: % Inhibition @ 100 nM
468 kinases [27] = biological target: 468 kinases (Homo sapiens, UniProt O14965); settings: AURKA; read-out: % Inhibition @ 100 nM
468 kinases [28] = biological target: 468 kinases (Homo sapiens, UniProt Q92630); settings: DYRK2; read-out: % Inhibition @ 100 nM
468 kinases [29] = biological target: 468 kinases (Homo sapiens, UniProt Q16584); settings: MLK3; read-out: % Inhibition @ 100 nM
468 kinases [30] = biological target: 468 kinases (Homo sapiens, UniProt Q9BQI3); settings: EIF2AK1; read-out: % Inhibition @ 100 nM
468 kinases [31] = biological target: 468 kinases (Homo sapiens, UniProt Q16566); settings: CAMK4; read-out: % Inhibition @ 100 nM
468 kinases [32] = biological target: 468 kinases (Homo sapiens, UniProt P54753); settings: EPHB3; read-out: % Inhibition @ 100 nM
468 kinases [33] = biological target: 468 kinases (Homo sapiens, UniProt O00238); settings: BMPR1B; read-out: % Inhibition @ 100 nM

Row | Structure (SMILES) | inhibition at 0.1 µM (468 kinases [1]; FLT3 -autoinhibited) | inhibition at 0.1 µM (468 kinases [1]; FLT3) | inhibition at 0.1 µM (468 kinases [2]) | inhibition at 0.1 µM (468 kinases [3]) | inhibition at 0.1 µM (468 kinases [4]) | inhibition at 0.1 µM (468 kinases [5]) | inhibition at 0.1 µM (468 kinases [6]) | inhibition at 0.1 µM (468 kinases [7]) | inhibition at 0.1 µM (468 kinases [8]) | inhibition at 0.1 µM (468 kinases [9]) | inhibition at 0.1 µM (468 kinases [10]) | inhibition at 0.1 µM (468 kinases [11]) | inhibition at 0.1 µM (468 kinases [12]) | inhibition at 0.1 µM (468 kinases [13]) | inhibition at 0.1 µM (468 kinases [14]) | inhibition at 0.1 µM (468 kinases [15]) | inhibition at 0.1 µM (468 kinases [16]) | inhibition at 0.1 µM (468 kinases [17]) | inhibition at 0.1 µM (468 kinases [18]) | inhibition at 0.1 µM (468 kinases [19]) | other results
1 | CCN(CC)CCNC(=O)c1c(C)[nH]c(/C=C2\C(=O)Nc3ccc(CCO)cc32)c1C [Compound No. 10, (Z)—N-(2-(Diethylamino)ethyl)-5-((5-(2-hydroxyethyl)-2-oxoindolin-3-ylidene)methyl)-2,4-dimethyl-1H-pyrrole-3-carboxamide] | 81% | 96.7% | 0% | 88% | 91.7% | 31% | 36% | 58% | 17% | 0% | 0% | 0% | 68% | 0% | 94.4% | 10% | 9% | 64% | 0% | 8% | inhibition at 0.1 µM (468 kinases [20]): 86%; inhibition at 0.1 µM (468 kinases [21]): 73%; inhibition at 0.1 µM (468 kinases [22]): 10%; inhibition at 0.1 µM (468 kinases [23]): 17%; inhibition at 0.1 µM (468 kinases [24]): 72%; inhibition at 0.1 µM (468 kinases [25]): 18%; inhibition at 0.1 µM (468 kinases [26]): 0%; inhibition at 0.1 µM (468 kinases [27]): 0%; inhibition at 0.1 µM (468 kinases [28]): 18%; inhibition at 0.1 µM (468 kinases [29]): 20%; inhibition at 0.1 µM (468 kinases [30]): 0%; inhibition at 0.1 µM (468 kinases [31]): 0%; inhibition at 0.1 µM (468 kinases [32]): 0%; inhibition at 0.1 µM (468 kinases [33]): 0%
2 | CCN(CC)CCNC(=O)c1c(C)[nH]c(/C=C2\C(=O)Nc3ccc(CCC(N)=O)cc32)c1C [Compound No. 16, (Z)-5-((5-(3-Amino-3-oxopropyl)-2-oxoindolin-3-ylidene)methyl)-N-(2-(diethylamino)ethyl)-2,4-dimethyl-1H-pyrrole-3-carboxamide] | 61% | 62% | 36% | 77% | 86% | 56% | 35% | 0% | 48% | 6% | 23% | 14% | 44% | 19% | 97.2% | 16% | 7% | 56% | 1% | 8% | inhibition at 0.1 µM (468 kinases [20]): 99.3%; inhibition at 0.1 µM (468 kinases [21]): 88%; inhibition at 0.1 µM (468 kinases [22]): 20%; inhibition at 0.1 µM (468 kinases [23]): 16%; inhibition at 0.1 µM (468 kinases [24]): 76%; inhibition at 0.1 µM (468 kinases [25]): 21%; inhibition at 0.1 µM (468 kinases [26]): 5%; inhibition at 0.1 µM (468 kinases [27]): 41%; inhibition at 0.1 µM (468 kinases [28]): 34%; inhibition at 0.1 µM (468 kinases [29]): 0%; inhibition at 0.1 µM (468 kinases [30]): 42%; inhibition at 0.1 µM (468 kinases [31]): 0%; inhibition at 0.1 µM (468 kinases [32]): 0%; inhibition at 0.1 µM (468 kinases [33]): 28%
